From ChEMBL document CHEMBL4043112, “Recent synthetic and medicinal perspectives of tryptanthrin” (Bioorg Med Chem, 2017)
Values after ≈ are worked out from the molar mass of the structure shown. Where a name gives a salt, the structure may show the parent alone.

Experiments:
[1] = tested on: Malassezia furfur; test: Antifungal activity against Malassezia furfur after 2 to 4 days by agar plate dilution method; format: functional
[2] = tested on: Staphylococcus aureus; test: Antibacterial activity against methicillin resistant Staphylococcus aureus after 24 hrs by agar plate dilution method; format: functional
[3] = tested on: MCF7; test: Cytotoxicity against human wild-type MCF7 cells after 72 hrs; format: functional, cell-based; conditions: MCF7, 72 h
[4] = species on record: Homo sapiens; test: Inhibition of human DNA topoisomerase 2 ATPase activity at 400 mM by Topo-2 ATPase assay
[5] = molecular target: ATP-dependent translocase ABCB1 (Homo sapiens, UniProt P08183); test: Inhibition of MDR1 in human MCF7/ADR cells assessed as potentiation of verapamil-induced cytotoxicity by measuring cell growth (reference value: 78.2%); format: cell-based; set-up: scale not given: the % may be the effect or the level left
[6] = species on record: Homo sapiens; test: Inhibition of human DNA topoisomerase 2-mediated decatenation of kinetoplast DNA at […] by kinetoplast DNA decatenation assay
[7] = tested on: NCI/ADR-RES; test: Cytotoxicity against human MCF7/ADR cells after 72 hrs; format: functional, cell-based
[8] = species on record: Homo sapiens; test: Inhibition of human DNA topoisomerase 2 ATPase activity at 200 mM by Topo-2 ATPase assay
[9] = species on record: Homo sapiens; test: Inhibition of human DNA topoisomerase 2 ATPase activity at 300 mM by Topo-2 ATPase assay
[10] = tested on: MCF7; test: Cytotoxicity against human wild-type MCF7 cells assessed as cell growth at 3 mM after 72 hrs relative to control; format: functional; conditions: MCF7, 72 h, read-out: Activity
[11] = tested on: NCI/ADR-RES; test: Cytotoxicity against human MCF7/ADR cells assessed as cell growth at 3 mM after 72 hrs relative to control; format: functional; conditions: read-out: Activity
[12] = tested on: NCI/ADR-RES; test: Cytotoxicity against human MCF7/ADR cells assessed as inhibition of cell proliferation at 10^-6 M after 5 days by MTT assay; format: functional; conditions: 120 h
[13] = tested on: MOLT-4; test: Antiproliferative activity against human MOLT4 cells after 48 hrs; format: functional, cell-based; conditions: MOLT-4, 48 h
[14] = tested on: K562; test: Induction of apoptosis in human K562 cells assessed as late apoptotic cells at 25 ug/ml by Annexin V/propidium iodide staining-based flow cytometry; format: functional
[15] = tested on: Rattus norvegicus; test: Anti-inflammatory activity in Wistar Han rat assessed as reduction in carrageenan-induced increase in infiltrating cells at 10 mg/kg, po administered 1 hr prior to carrageenan challenge by vital trypan blue staining-based microscopic method; format: functional
[16] = tested on: HL-60; test: Antiproliferative activity against human HL60 cells after 48 hrs; format: functional, cell-based
[17] = Inhibition of PMA-induced HGF production in HDF at 0.1 mg/ml after 24 hrs by ELISA; format: functional; conditions: Homo sapiens
[18] = molecular target: Indoleamine 2,3-dioxygenase 1 (Homo sapiens, UniProt P14902); test: Inhibition of IDO-1 (unknown origin)
[19] = Antiproliferative activity against spleen cells from SBP-immunized mouse assessed as fluorescence intensity at 5 uM after 3 days by Alamar blue dye-based method (reference value: 2781 +/- 59I); format: functional, Spleen cell
[20] = molecular target: T1, Polyunsaturated fatty acid 5-lipoxygenase (Homo sapiens, UniProt P09917); test: Inhibition of 5-LO in fMLP-stimulated human neutrophils by HPLC analysis
T1 sequence (P09917 whole entry): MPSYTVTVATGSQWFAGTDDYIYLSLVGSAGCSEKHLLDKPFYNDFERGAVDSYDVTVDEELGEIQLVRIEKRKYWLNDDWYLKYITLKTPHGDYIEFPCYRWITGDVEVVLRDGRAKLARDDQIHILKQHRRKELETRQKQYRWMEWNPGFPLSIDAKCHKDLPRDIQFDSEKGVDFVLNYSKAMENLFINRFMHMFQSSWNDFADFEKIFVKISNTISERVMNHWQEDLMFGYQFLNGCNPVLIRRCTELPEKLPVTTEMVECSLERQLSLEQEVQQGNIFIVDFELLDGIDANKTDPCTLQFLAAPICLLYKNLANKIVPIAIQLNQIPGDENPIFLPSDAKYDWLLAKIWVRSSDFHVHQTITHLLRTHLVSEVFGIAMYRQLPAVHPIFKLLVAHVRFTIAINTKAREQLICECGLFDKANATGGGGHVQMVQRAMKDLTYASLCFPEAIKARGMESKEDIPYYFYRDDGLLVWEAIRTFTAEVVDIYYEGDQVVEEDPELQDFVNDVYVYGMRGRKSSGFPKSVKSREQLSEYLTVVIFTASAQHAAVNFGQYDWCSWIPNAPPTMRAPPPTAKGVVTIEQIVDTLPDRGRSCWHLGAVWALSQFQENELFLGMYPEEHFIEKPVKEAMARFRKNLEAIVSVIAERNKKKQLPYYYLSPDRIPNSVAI

[21] = tested on: HL-60; test: Antiproliferative activity against human HL60 cells after 24 hrs; format: functional, cell-based; conditions: HL-60, 24 h
[22] = tested on: Rattus norvegicus; test: Anti-inflammatory activity in Wistar Han rat assessed as reduction of carrageenan-induced PGE2 levels at 10 mg/kg, po administered 1 hr prior to carrageenan challenge by radioimmunoassay; format: functional
[23] = tested on: Rattus norvegicus; test: Anti-inflammatory activity in Wistar Han rat assessed as reduction of carrageenan-induced pleural LTB4 levels at 10 mg/kg, po administered 1 hr prior to carrageenan challenge by HPLC analysis; format: functional
[24] = Inhibition of EGF-induced HGF production in HDF at 2 mg/ml after 72 hrs by ELISA; format: functional; conditions: Homo sapiens
[25] = tested on: K562; test: Induction of apoptosis in human K562 cells assessed as late apoptotic cells at 12.5 ug/ml by Annexin V/propidium iodide staining-based flow cytometry; format: functional
[26] = tested on: K562; test: Induction of apoptosis in human K562 cells assessed as late apoptotic cells at 6.25 ug/ml by Annexin V/propidium iodide staining-based flow cytometry; format: functional
[27] = tested on: K562; test: Antiproliferative activity against human K562 cells after 24 hrs; format: functional, cell-based; conditions: K562, 24 h
[28] = tested on: Rattus norvegicus; test: Anti-inflammatory activity in Wistar Han rat assessed as reduction in carrageenan-induced exudate volume at 10 mg/kg, po administered 1 hr prior to carrageenan challenge; format: functional
[29] = tested on: K562; test: Antiproliferative activity against human K562 cells after 48 hrs by MTT staining-based method; format: functional, cell-based; conditions: K562, 48 h
[30] = tested on: K562; test: Antiproliferative activity against human K562 cells after 48 hrs; format: functional, cell-based; conditions: K562, 48 h
[31] = molecular target: T1, Polyunsaturated fatty acid 5-lipoxygenase; test: Inhibition of 5-LO in LPS-stimulated human neutrophils by HPLC analysis
[32] = Antiproliferative activity against spleen cells from SBP-immunized mouse assessed as fluorescence intensity at 10 uM after 3 days by Alamar blue dye-based method (reference value: 2781 +/- 59I); format: functional, Spleen cell
[33] = tested on: MOLT-4; test: Antiproliferative activity against human MOLT4 cells after 24 hrs; format: functional, cell-based; conditions: MOLT-4, 24 h

Indoleamine 2,3-dioxygenase 1, sequence (P14902 whole entry): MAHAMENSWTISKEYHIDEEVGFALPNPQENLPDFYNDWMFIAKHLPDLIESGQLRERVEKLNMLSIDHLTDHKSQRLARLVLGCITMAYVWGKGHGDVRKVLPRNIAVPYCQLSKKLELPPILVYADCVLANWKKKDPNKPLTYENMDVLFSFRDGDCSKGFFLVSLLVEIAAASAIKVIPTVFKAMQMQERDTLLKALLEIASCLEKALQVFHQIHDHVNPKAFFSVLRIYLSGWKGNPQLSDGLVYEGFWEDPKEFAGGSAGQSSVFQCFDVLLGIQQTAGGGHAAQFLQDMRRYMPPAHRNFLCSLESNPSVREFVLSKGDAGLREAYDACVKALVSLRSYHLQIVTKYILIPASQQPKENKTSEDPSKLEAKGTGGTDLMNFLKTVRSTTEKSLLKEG
ATP-dependent translocase ABCB1, sequence (P08183 whole entry): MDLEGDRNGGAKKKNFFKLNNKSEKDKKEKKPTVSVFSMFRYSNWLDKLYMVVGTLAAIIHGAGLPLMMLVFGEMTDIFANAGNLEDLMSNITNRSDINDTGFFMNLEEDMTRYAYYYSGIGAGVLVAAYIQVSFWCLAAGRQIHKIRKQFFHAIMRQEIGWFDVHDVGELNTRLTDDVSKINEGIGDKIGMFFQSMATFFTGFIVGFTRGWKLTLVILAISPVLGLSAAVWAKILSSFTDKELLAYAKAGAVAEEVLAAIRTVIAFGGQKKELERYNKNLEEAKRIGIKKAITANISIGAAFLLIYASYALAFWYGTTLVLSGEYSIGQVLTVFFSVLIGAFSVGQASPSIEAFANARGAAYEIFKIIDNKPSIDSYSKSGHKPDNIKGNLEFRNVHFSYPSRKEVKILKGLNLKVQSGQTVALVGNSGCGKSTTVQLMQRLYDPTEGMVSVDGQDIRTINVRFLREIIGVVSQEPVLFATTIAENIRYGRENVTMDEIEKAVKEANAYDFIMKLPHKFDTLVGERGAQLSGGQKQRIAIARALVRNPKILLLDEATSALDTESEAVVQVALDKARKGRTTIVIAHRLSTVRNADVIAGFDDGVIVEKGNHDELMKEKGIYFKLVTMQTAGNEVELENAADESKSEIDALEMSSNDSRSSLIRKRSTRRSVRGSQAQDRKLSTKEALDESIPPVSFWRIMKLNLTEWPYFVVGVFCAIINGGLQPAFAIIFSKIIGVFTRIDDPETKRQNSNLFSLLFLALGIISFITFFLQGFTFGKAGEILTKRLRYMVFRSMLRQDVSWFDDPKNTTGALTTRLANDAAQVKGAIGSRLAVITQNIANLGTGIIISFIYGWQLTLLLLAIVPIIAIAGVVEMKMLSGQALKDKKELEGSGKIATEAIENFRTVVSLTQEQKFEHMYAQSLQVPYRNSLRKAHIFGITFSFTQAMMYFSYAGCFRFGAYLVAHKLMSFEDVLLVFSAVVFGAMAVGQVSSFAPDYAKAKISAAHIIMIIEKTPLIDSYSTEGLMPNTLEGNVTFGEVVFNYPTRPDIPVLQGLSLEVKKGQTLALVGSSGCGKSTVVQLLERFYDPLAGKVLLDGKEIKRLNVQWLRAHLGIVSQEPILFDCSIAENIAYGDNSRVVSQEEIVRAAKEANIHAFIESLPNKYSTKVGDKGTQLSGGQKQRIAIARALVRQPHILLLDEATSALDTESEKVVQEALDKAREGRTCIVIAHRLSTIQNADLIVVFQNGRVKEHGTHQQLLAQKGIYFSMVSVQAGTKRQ

## O=C1c2cc(F)ccc2-n2c1nc1ccccc1c2=O
[1]
  MIC: 1 µg/mL (≈ 3.76 µM)
[2]
  MIC: 0.1 µg/mL (≈ 0.376 µM)

## O=C1c2ccccc2-n2c1nc1ccc(Cl)cc1c2=O
[1]
  MIC: 4 µg/mL (≈ 14.1 µM)
[2]
  MIC: 0.1 µg/mL (≈ 0.354 µM)

## O=C1c2cc3ccccc3cc2-n2c1nc1ccccc1c2=O
[3]
  IC50: 0.27 to 12.1 µM
[4]
  inhibition: 47.2%
[5]
  Activity: 59%
[6]
  inhibition: 43.4%
[7]
  IC50: 0.16 to 9.82 µM
[8]
  inhibition: 30.7%

## COc1ccc2c(c1)C(=O)c1nc3ccccc3c(=O)n1-2
[1]
  MIC: > 120 µg/mL
[2]
  MIC: 2.5 µg/mL (≈ 8.98 µM)

## O=C1c2ccccc2-n2c1nc1ccc([N+](=O)[O-])cc1c2=O
[1]
  MIC: > 160 µg/mL
[2]
  MIC: > 100 µg/mL

## Nc1ccc2nc3n(c(=O)c2c1)-c1ccccc1C3=O
[1]
  MIC: 20 µg/mL (≈ 76 µM)
[2]
  MIC: 2 µg/mL (≈ 7.6 µM)

## Cc1ccc2c(c1)C(=O)c1nc3ccccc3c(=O)n1-2
[1]
  MIC: > 120 µg/mL
[2]
  MIC: 0.5 µg/mL (≈ 1.91 µM)

## COc1ccc(CCN(C)CCCC(C#N)(c2ccc(OC)c(OC)c2)C(C)C)cc1OC (configuration not stated)
[5]
  Activity: 18.1%

## O=C1c2cc(Br)ccc2-n2c1nc1ccccc1c2=O
[1]
  MIC: 2.5 µg/mL (≈ 7.64 µM)
[2]
  MIC: 0.1 µg/mL (≈ 0.306 µM)

## O=C1c2ccccc2-n2c1nc1ccc(Br)cc1c2=O
[1]
  MIC: 4 µg/mL (≈ 12.2 µM)
[2]
  MIC: 0.3 µg/mL (≈ 0.917 µM)

## CO[C@@H]1[C@@H](OC(N)=O)[C@@H](O)[C@H](Oc2ccc3c(O)c(NC(=O)c4ccc(O)c(CC=C(C)C)c4)c(=O)oc3c2C)OC1(C)C
[4]
  inhibition: 60.2%
[8]
  inhibition: 38.5%
[9]
  inhibition: 45.9%

## COc1cccc2c1C(=O)c1c(O)c3c(c(O)c1C2=O)C[C@@](O)(C(=O)CO)C[C@@H]3O[C@H]1C[C@H](N)[C@H](O)[C@H](C)O1 [DOXORUBICIN HYDROCHLORIDE]
[3]
  IC50: 0.99 to 2.63 µM
[10]
  growth at 3000 µM: 3.9 to 24.1%
[11]
  growth at 3000 µM: 0.44 to 78.2%
[7]
  IC50: > 50 µM

## COc1cccc2c1C(=O)c1c(O)c3c(c(O)c1C2=O)C[C@@](O)(C(=O)CO)C[C@@H]3O[C@H]1C[C@H](N)[C@H](O)[C@H](C)O1 [DOXORUBICIN]
[12]
  inhibition at 1 µM: 20%

## O=C1c2ccccc2-n2c1nc1ccccc1c2=O [TRYPTANTHRIN]
[13]
  IC50: 8 µM
[1]
  MIC: 4 µg/mL (≈ 16.1 µM)
[3]
  IC50: 0.58 to 15.5 µM
[14]
  Activity: 52.2%
[15]
  inhibition in vivo at 10 mg/kg: 41%
[16]
  IC50: 2 to 20000 µM
[17]
  inhibition at 100 µg/mL: 70%
[18]
  IC50: 499 µM
[19]
  Flu intensity: 2826
[20]
  IC50: 0.2 to 0.6 µM
[21]
  IC50: 5 µM
[22]
  inhibition in vivo at 10 mg/kg: 42%
[23]
  inhibition in vivo at 10 mg/kg: 46%
[24]
  inhibition at 2000 µg/mL: 70%
[25]
  Activity: 33.4%
[26]
  Activity: 21.9%
[7]
  IC50: 0.03 to 10 µM
[27]
  IC50: 15 µM
[28]
  inhibition in vivo at 10 mg/kg: 80%
[29]
  IC50: 8.8 µg/mL (≈ 35.4 µM)
[30]
  IC50: 5 µM
[31]
  IC50: 0.2 to 0.6 µM
[2]
  MIC: 0.5 µg/mL (≈ 2.01 µM)
[32]
  Flu intensity: 2740
[33]
  IC50: 10 µM

## N[C@@H](Cc1c[nH]c2ccccc12)C(=O)O [TRYPTOPHAN]
[18]
  IC50: 499 µM
